Here are results for eight compounds from DBAASP.

Some test systems named below: Escherichia coli ST131; Candida albicans; Escherichia coli 1005; Escherichia coli UTI89; Escherichia coli; Staphylococcus aureus; Streptococcus sanguinis.
Common to all, as to test: ≥ marks a high value that may be exact or a test limit, other limits are often not marked, values filed in µg/mL are converted to µM
The test system of test [1] is Candida albicans ATCC 14053.
In test [2] the test system is Escherichia coli ATCC 11775.
Test [3] has as its system Micrococcus luteus ATCC 49732.
The test system of test [4] is Staphylococcus aureus ATCC 12600.
The test system of test [5] is Escherichia coli ATCC 25922.
For test [6], the system named is Klebsiella pneumoniae ST258.
Test [7] relates to Candida krusei CGMCC 2.1857.
Test [8] relates to Candida parapsilosis CGMCC 2.3989.
The test system of test [9] is Candida tropicalis CGMCC 2.1975.
Test [10] deals with Salmonella enterica subsp. enterica serovar Pullorum ATCC 7913.
Test [11] has as its system Salmonella enterica subsp. enterica serovar Typhimurium ATCC 14028.
Test [12] deals with Staphylococcus aureus ATCC 25923.
In test [13] the test system is Staphylococcus aureus ATCC 29213.
Test [14] concerns Staphylococcus aureus ATCC 43300.
The test system of test [15] is Staphylococcus epidermidis ATCC 12228.
Test [16] concerns Escherichia coli K12 MG1655.
In test [17] the test system is Staphylococcus epidermidis.
Test [18] concerns Acinetobacter baumannii ATCC 17978.
Test [19] concerns Enterococcus faecalis ATCC 19433.
Test [20] relates to Enterococcus faecalis ATCC 29212.
The subject of test [21] is Enterococcus faecalis ATCC BAA-2365.
The subject of test [22] is Enterococcus faecium ATCC BAA-2316.
In test [23] the test system is Escherichia coli NCTC 12923.
Test [24] has as its system Klebsiella pneumoniae NCTC 13368.
Test [25] relates to Pseudomonas aeruginosa PAO1.
Test [26] has as its system Staphylococcus aureus ATCC 33591.
For test [27], the system named is Staphylococcus aureus ATCC 9144.
Test [28] relates to Staphylococcus aureus ATCC BAA-41.
The subject of test [29] is Staphylococcus aureus USA 300.
Test [30] relates to Candida albicans ATCC 90029.
Test [31] deals with Salmonella enterica subsp. enterica serovar Pullorum CVCC 3533.
The subject of test [32] is Salmonella enterica subsp. enterica serovar Pullorum.
Test [33] deals with Pseudomonas aeruginosa ATCC 27853.
Test [34] concerns Pseudomonas aeruginosa ATCC 9027.
Test [35] relates to Staphylococcus aureus ATCC 19636.

Values after ≈ are worked out from the molar mass of the structure shown.

The term MIC denotes the lowest concentration that inhibits growth of the organism. Low values mean greater potency, high ones weaker potency.

As for `C[C@H](NC(=O)[C@H](C)NC(=O)[C@@H](NC(=O)CNC(=O)[C@@H]1CCCN1)[C@@H](C)O)C(=O)N[C@@H](Cc1ccccc1)C(=O)N[C@@H](CCCCN)C(=O)O` [PGTAAFK], the MIC was ≥ 36 µM in test [1], ≥ 128 µM in test [2], ≥ 36 µM in [3] and ≥ 967 µM in test [4].
Take `CC(C)C[C@H](NC(=O)[C@H](Cc1c[nH]c2ccccc12)NC(=O)[C@H](CCCCN)NC(=O)[C@H](CC(C)C)NC(=O)[C@H](Cc1c[nH]c2ccccc12)NC(=O)[C@H](CCCCN)NC(=O)[C@H](CCCN=C(N)N)NC(=O)[C@H](Cc1c[nH]c2ccccc12)NC(=O)[C@H](CCCCN)NC(=O)[C@@H](N)CCCCN)C(=O)N[C@@H](C)C(=O)N[C@@H](CCCCN)C(=O)N[C@@H](CCCCN)C(N)=O` [KKWRKWLKWLAKK]: the MIC in test [5] was 2 µM (≈ 3.6 µg/mL); in the test on Escherichia coli ST131, 2 µM (≈ 3.6 µg/mL); in test [6], 4 µM (≈ 7.19 µg/mL).
On to `CC[C@H](C)[C@H](NC(=O)[C@H](CCCN=C(N)N)NC(=O)[C@@H](NC(=O)[C@@H](NC(=O)[C@@H](NC(=O)[C@H](CCCN=C(N)N)NC(=O)[C@@H](NC(=O)[C@H](CCCN=C(N)N)NC(=O)[C@@H](N)CCCN=C(N)N)[C@@H](C)CC)[C@@H](C)CC)[C@@H](C)CC)[C@@H](C)CC)C(=O)N[C@@H](CCCN=C(N)N)C(=O)N[C@@H](CCCN=C(N)N)C(N)=O` [RRIRIIIRIRR], for which the minimal inhibitory concentration (MIC) against Candida albicans amounted to 1.41 µM (≈ 2.15 µg/mL); in test [7], 2 µM (≈ 3.04 µg/mL); in test [8] it was 4 µM (≈ 6.08 µg/mL); in test [9] it was 1 µM (≈ 1.52 µg/mL); against Escherichia coli 1005, 4 µM (≈ 6.08 µg/mL); in test [10], 2 µM (≈ 3.04 µg/mL). Also, the MIC in [11], in test [12], in [13], in test [14] and in test [15] was 4 µM (≈ 6.08 µg/mL) each time.
`CC[C@H](C)[C@H](NC(=O)[C@H](CCCN=C(N)N)NC(=O)[C@H](CCC(N)=O)NC(=O)[C@H](Cc1c[nH]c2ccccc12)NC(=O)[C@@H](NC(=O)[C@H](CCCCN)NC(=O)[C@@H](N)CCCCN)[C@@H](C)CC)C(=O)N[C@@H](CCCCN)C(=O)N[C@@H](CC(N)=O)C(=O)N[C@@H](Cc1ccccc1)C(=O)N[C@@H](Cc1ccccc1)C(=O)N[C@@H](CCC(N)=O)C(=O)N[C@@H](CCCCN)C(=O)N[C@@H](CC(C)C)C(=O)O` [KKIWQRIKNFFQKL]: the MIC was 7 µM (≈ 13.1 µg/mL) in [16], 6.25 µM (≈ 11.7 µg/mL) in the test on Escherichia coli UTI89, 29 µM (≈ 54.4 µg/mL) in test [11] and ≥ 50 µM in [17].
`CC[C@H](C)[C@H](NC(=O)[C@H](C)NC(=O)[C@H](CCCCN)NC(=O)[C@H](CCCN=C(N)N)NC(=O)[C@@H](NC(=O)[C@H](CC(C)C)NC(=O)[C@H](CO)NC(=O)[C@H](Cc1ccccc1)NC(=O)[C@H](CC(C)C)NC(=O)[C@@H](N)Cc1ccccc1)[C@@H](C)CC)C(=O)NCC(=O)NCC(=O)N[C@@H](CC(C)C)C(=O)N[C@H](C(=O)N[C@@H](CO)C(=O)N[C@@H](C)C(=O)N[C@@H](Cc1ccccc1)C(=O)N[C@@H](CCCCN)C(=O)O)[C@@H](C)CC` [FLFSLIRKAIGGLISAFK]: the MIC in test [18] was 4.04 µM (≈ 8 µg/mL); in test [19], 12.5 µM (≈ 24.8 µg/mL); in test [20] it was 10 µM (≈ 19.8 µg/mL); in [21] it was 5 µM (≈ 9.91 µg/mL); in [22] it was 15 µM (≈ 29.7 µg/mL); in test [23] it was ≥ 64.6 µM. Further, the MIC in test [24] was ≥ 64.6 µM; in test [25] it was > 64.6 µM; in [13], 5 µM (≈ 9.91 µg/mL); in test [26], 5 µM (≈ 9.91 µg/mL); in test [14], 5 µM (≈ 9.91 µg/mL); in test [27], 8.07 µM (≈ 16 µg/mL). The MIC in test [28] was found to be 5 µM (≈ 9.91 µg/mL); in [29], 16.1 µM (≈ 32 µg/mL); in [15] it was 2.5 µM (≈ 4.95 µg/mL).
For the compound `CC(C)C[C@H](NC(=O)[C@H](CCCCN)NC(=O)[C@H](Cc1cnc[nH]1)NC(=O)[C@H](CCCCN)NC(=O)[C@H](CC(C)C)NC(=O)[C@H](CC(C)C)NC(=O)[C@@H](N)CCCCN)C(=O)N[C@@H](CC(C)C)C(=O)N[C@H](C(=O)N[C@H](C(=O)N[C@@H](CC(C)C)C(=O)N[C@@H](C)C(=O)O)[C@@H](C)O)C(C)C` [KLLKHKLLVTLA], the MIC in test [30] is ≥ 36.3 µM; in [5] it was 9.08 µM (≈ 12.5 µg/mL); in the test with Escherichia coli it was 18.2 µM (≈ 25 µg/mL); in [31], 4.54 µM (≈ 6.25 µg/mL); in test [32], 4.54 µM (≈ 6.25 µg/mL); in test [13] it was 18.2 µM (≈ 25 µg/mL). Besides, the MIC with Staphylococcus aureus was 18.2 µM (≈ 25 µg/mL).
With `CC(C)C[C@H](NC(=O)[C@H](C)NC(=O)[C@H](CCCCN)NC(=O)[C@H](CC(C)C)NC(=O)[C@H](Cc1c[nH]c2ccccc12)NC(=O)[C@H](CCCCN)NC(=O)[C@H](CCCN=C(N)N)NC(=O)[C@H](Cc1c[nH]c2ccccc12)NC(=O)[C@H](CCCCN)NC(=O)[C@@H](N)CCCCN)C(=O)N[C@@H](C)C(=O)N[C@@H](CCCCN)C(=O)N[C@@H](CCCCN)C(=O)O` [KKWRKWLKALAKK], the MIC in test [5] was 7.42 µM (≈ 12.5 µg/mL); in test [33] it was 14.8 µM (≈ 25 µg/mL); in [34], 14.8 µM (≈ 25 µg/mL); in test [35], 3.74 µM (≈ 6.3 µg/mL); in [12], > 29.7 µM; in [13] it was 29.7 µM (≈ 50 µg/mL).
For `NC(=O)[C@H](Cc1ccccc1)NC(=O)[C@H](Cc1ccccc1)NC(=O)[C@H](Cc1ccccc1)NC(=O)[C@H](Cc1ccccc1)NC(=O)[C@H](Cc1ccccc1)NC(=O)[C@@H](N)Cc1ccccc1` [FFFFFF], the MIC against Staphylococcus aureus stood at 14.3 µM (≈ 12.8 µg/mL); against Streptococcus sanguinis, 8.3 µM (≈ 7.48 µg/mL).
